Columns and labels:
Hey1 = experiment: RT-PCR / qRT-PCR of Notch target Hey1 mRNA in neurosphere cultures after DAPT; format: cell-based, human; conditions: for decrease of Hey1 mRNA level: 48 hours after treatment, RT-PCR; for Hey1 expression (qRT-PCR): 1 μM DAPT, 48 hours
Protocol: TMZ concentrations for each culture were selected based on previous experiments (Mihaliak et al., Cancer Letts. 296, 168-177 (2010)) DAPT and LY concentrations were chosen for each culture based on the decrease in Hes1 and Hey1 expression. RNA was isolated from the cultures 48 hours after DAPT treatment, and Hes1 and Hey1 cDNA expression levels were analyzed by PCR or qPCR.
RT-PCR and RT-qPCR were performed as follows. Neurosphere cultures were pelleted and tumor tissues from subcutaneous xenografts were broken into a powder using a BioPulverizer (Biospec Products, Inc., Bartlesville, Okla.). RNA was isolated from neurosphere cultures and frozen tumor samples using TRIzol Reagent (Invitrogen, Carlsbad, Calif.), following the manufacturer's protocol. RNA was treated with DNase I, Amplification Grade (Invitrogen, Carlsbad, Calif.). cDNA was made using the SuperScript II Reverse Transcription (RT) Kit with Oligo(dT)12-18 primers (Invitrogen, Carlsbad, Calif.), followed by a 20 minute incubation at 37° C. with RNaseH. PCR was carried out using Taq DNA Polymerase, following the manufacturer's protocol (Invitrogen, Carlsbad, Calif.). Real time qPCR was carried out using QuantiTect SYBR Green (QIAGEN, Valencia, Calif.). Hes1 and β-Actin primers were developed using Primer3 (Rozen and Skaletsky, Methods Mol Biol 2000; 132: 365-86). Hes1 forward primer: 5″ […] 3″ (SEQ ID NO:1) and reverse primer: 5″ […] 3″ (SEQ ID NO:2). β-Actin (RT-PCR) forward primer: 5″[…] 3″ (SEQ ID NO:3) and reverse primer: 5″ […] 3″ (SEQ ID NO:4). β-Actin (qRT-PCR) forward primer: 5″[…] 3″ (SEQ ID NO:5) and reverse primer: 5″ […] (SEQ ID NO:6). Primers for Hey1 (Osipo et al., Oncogene 2008; 27: 5019-32), Notch1 (Lefort et al., Genes Dev 2007; 21: 562-77), Notch2 (O'Neill et al., Am J Pathol 2007; 171: 1023-36), Notch3 (Buchler et al., Ann Surg 2005; 242: 791-800, discussion −1) and Notch4 (Buchler et al., Ann Surg 2005; 242: 791-800, discussion −1) were previously published, RT-PCR products were analyzed on 2% agarose gels. tantification of band intensity for DAPT treated lines was determined using ImageJ (Rasband W S. ImageJ, U.S. National Institutes of Health, Bethesda, Md., USA. 1997-2004). cDNA levels for qRT-PCR products were calculated using the PFAFFL method (Pfaffl, Nucleic Acids Res 2001; 29: e45).

[1] = tested on: U87NS, U373NS, GS7-2 and GS8-26; experiment: Neurosphere recovery assay, initial neurospheres, range over all cultures; format: cell-based, human; conditions: day 7 or 10
Protocol: To determine the effects of TMZ plus DAPT neurospheres, cells were plated as previously described (Mihaliak et al., Cancer Letts. 296, 168-177 (2010)). Immediately after plating, cells were treated with DMSO, DAPT-only, LY411,575 (LY)-only TMZ-only, TMZ+DAPT or TMZ+LY. The initial neurospheres were counted on day 7 for the converted cell lines and on day 10 for the slower growing primary lines. Neurosphere recovery was measured on day 14 or 20. The neurospheres were dissociated, re-plated and secondary neurosphere formation was measured on day 21 or 30.
Neurosphere cultures were dissociated to single cell suspensions by pH dissociation followed by filtration through 40 μm screens. For the neurosphere assay, 3,000 cells/ml of defined medium were seeded in 6-well plates. Immediately after plating, cells were treated with DMSO (Research Organics, Cleveland, Ohio) carrier control, TMZ-only, DAPT-only, or TMZ+DAPT. Additional DAPT was added on days 2 and 4. Neurospheres consisting of 10 or more cells were counted under a light microscope on day 7 for the converted cell lines. Primary lines have a slightly longer doubling time and were counted on day 10. […] Neurospheres from the recovery period were counted on day 14 or day 20. […] The number of secondary neurospheres formed by converted cell lines and primary cultures were counted on day 21 or day 30, respectively. […]

GS7-2-pMIG = experiment: Neurosphere recovery assay, empty vector GS7-2-pMIG; format: cell-based, human; conditions: empty vector control
Protocol: (§1) Neurosphere cultures were dissociated to single cell suspensions by pH dissociation followed by filtration through 40 μm screens. For the neurosphere assay, 3,000 cells/ml of defined medium were seeded in 6-well plates. Immediately after plating, cells were treated with DMSO (Research Organics, Cleveland, Ohio) carrier control, TMZ-only, DAPT-only, or TMZ+DAPT. Additional DAPT was added on days 2 and 4. Neurospheres consisting of 10 or more cells were counted under a light microscope on day 7 for the converted cell lines. Primary lines have a slightly longer doubling time and were counted on day 10. After counting the neurospheres from the initial treatment, 2 ml of fresh defined medium was added to each well. DAPT was also added once more to the DAPT-only and TMZ+DAPT samples, and the cells were incubated for an additional 7 or 10 days. Neurospheres from the recovery period were counted on day 14 or day 20. To analyze secondary neurosphere formation, cells were collected, pelleted and dissociated to a single cell suspension by the pH method. Cells from each well were re-seeded into 6-well plates with 2 ml of defined medium. The number of secondary neurospheres formed by converted cell lines and primary cultures were counted on day 21 or day 30, respectively. All recovery assays were repeated with a minimum of 6 replicate sets of time points. […]

GS7-2-NICD = experiment: Neurosphere recovery assay, GS7-2-NICD; format: cell-based, human; conditions: constitutive NICD
Protocol: as §1

U87NS xenografts = experiment: In vivo treatment of pre-existing subcutaneous U87NS xenografts; set-up: species or system nude mice
Protocol: We tested the effect of in vivo TMZ+GSI treatments on pre-existing subcutaneous glioma xenografts. […] When the tumor reached approximately 150 mm^3 (volume=([…])(π)(length/2)(width/2)^2), we began the following treatments: 1) DMSO control: two days of 100 μl DMSO/PBS (1:1) intraperitoneal (i.p.) injections; 2) TMZ-only: injections of TMZ (20 mg/kg) in 100 μl DMSO/PBS on days one and two; 3) LY chow-only: two days of 100 μl DMSO/PBS i.p. injections. […] The mice were fed LY chow from day 3 to 12.

[2] = in vivo; cited from earlier work

SMILES | decrease of Hey1 mRNA level (Hey1; U87NS, DAPT 1 μM) | Hey1 expression (qRT-PCR) (Hey1; U87NS-NICD) | Hey1 expression (qRT-PCR) (Hey1; U87NS-pMIG) | decrease of Hey1 mRNA level (Hey1; U373NS, DAPT 5 μM) | decrease of initial neurosphere formation [1] | recovery: increase in neurospheres (GS7-2-pMIG) | recovery: increase in neurospheres (GS7-2-NICD) | mice / xenografts with tumor progression (tumor volume doubled) (U87NS xenografts; TMZ 20 mg/kg i.p. days 1-2, LY chow day 3 to 12) | average time until tumor volume doubled (progression) (U87NS xenografts; after treatment, progressing mice only) | mice that succumbed to progression (U87NS xenografts; in vivo TMZ treatment) | concentration of TMZ in the cerebral spinal fluid [2]
C[C@H](NC(=O)Cc1cc(F)cc(F)c1)C(=O)N[C@H](C(=O)OC(C)(C)C)c1ccccc1 [DAPT, N-[N-(3,5-difluorophenacetyl)-L-alanyl]-(S)-phenylglycine t-butyl ester] | 76% | minimal decrease | decreased | 51% |  |  |  |  |  |  | 
Cn1nnc2c(C(N)=O)ncn2c1=O [TMZ, temozolomide] |  |  |  |  | 80-98% | 2.1 fold | 2.6 fold | 8/8 | 23 ± 7 days | 100% | about 5 μM
